{
  "source": "paper PMC4230943",
  "about": "“Mimicking Hypoxia to Treat Anemia: HIF-Stabilizer BAY 85-3934 (Molidustat) Stimulates Erythropoietin Production without Hypertensive Effects” (PLoS ONE, 2014)",
  "key": {"male Wistar rats [1]": {"system": "male Wistar rats", "test": "Comparison of oral BAY 85-3934 with rhEPO on erythropoiesis", "assay_type": "in vivo, rat", "experimental": "Male Wistar rats (240–340 g in body weight) were housed with five animals per cage for at least 1 week before experimentation. Blood samples from rats were collected under anesthesia (2% isoflurane in air) by puncturing the retro-orbital vein plexus with a glass capillary. In a repeat-dose, 26-day experiment, animals were administered vehicle or BAY 85-3934 at doses of 0.5 mg/kg, 1.25 mg/kg, 2.5 mg/kg, and 5 mg/kg. PCV was determined at baseline and at weekly intervals after centrifugation in a hematocrit capillary tube (Brand) for 10 min at full speed in a Haemofuge centrifuge (Heraeus). The number of reticulocytes in 5 µl blood was counted after staining with thiazol orange (Becton Dickinson) according to the manufacturer’s instructions by FACS analysis on a BD FACSCalibur system (Becton Dickinson). The efficacy of BAY 85-3934 (2.5 mg/kg, once-daily, oral) was also compared with that of rhEPO (25 IU/kg, 50 IU/kg, and 100 IU/kg, twice-weekly, s.c. injection). […] The efficacy of oral treatment with BAY 85-3934 was compared with that of standard rhEPO treatment in male Wistar rats."}, "[2]": {"test": "BAY 85-3934 plasma levels after oral administration", "assay_type": "in vivo, rat", "procedure": "Male Wistar rats (240–340 g in body weight) were housed with five animals per cage for at least 1 week before experimentation. Blood samples from rats were collected under anesthesia (2% isoflurane in air) by puncturing the retro-orbital vein plexus with a glass capillary. In a repeat-dose, 26-day experiment, animals were administered vehicle or BAY 85-3934 at doses of 0.5 mg/kg, 1.25 mg/kg, 2.5 mg/kg, and 5 mg/kg. PCV was determined at baseline and at weekly intervals after centrifugation in a hematocrit capillary tube (Brand) for 10 min at full speed in a Haemofuge centrifuge (Heraeus). The number of reticulocytes in 5 µl blood was counted after staining with thiazol orange (Becton Dickinson) according to the manufacturer’s instructions by FACS analysis on a BD FACSCalibur system (Becton Dickinson). The efficacy of BAY 85-3934 (2.5 mg/kg, once-daily, oral) was also compared with that of rhEPO (25 IU/kg, 50 IU/kg, and 100 IU/kg, twice-weekly, s.c. injection). The time-course of induction of EPO mRNA expression and plasma EPO was determined at baseline and 0.5 h, 1 h, 2 h, 4 h, 6 h, and 8 h after oral administration of a single dose of BAY 85-3934 (5 mg/kg).\n(§1) EPO was measured in plasma samples taken from rodents using a commercial ELISA kit (R&D Systems), according to the manufacturer’s instructions. Relative plasma EPO levels were given in picograms per milliliter. In cynomolgus monkeys, EPO was measured using a combination anti-human EPO ELISAs (R&D Systems and Roche Diagnostics), with human EPO as a standard. Values were given as units per liter. For determination of plasma prorenin from rats, a commercial ELISA (Oxford Biomedical Research) was used according to the manufacturer’s instructions. Hemoglobin in rodent blood samples was determined on a Cell-Dyn 3700 apparatus (Abbott Diagnostics). BAY 85-3934 plasma concentrations were determined after protein precipitation with acetonitrile/ammonium acetate using an internal standard, followed by separation using HPLC/mass spectrometry."}, "cynomolgus monkeys": {"system": "cynomolgus monkeys", "test": "5-day repeat-dose study of plasma EPO response", "assay_type": "in vivo, cynomolgus monkey", "procedure": "Male and female cynomolgus monkeys (2.8–5.6 kg in body weight) were used, which were housed two per cage. Blood samples from conscious cynomolgus monkeys were taken by puncturing a superficial vein. In a 5-day, repeat-dose study of plasma EPO response, BAY 85-3934 was administered at doses of 0.5 mg/kg and 1.5 mg/kg at 0 h, 24 h, 48 h, 72 h, and 96 h. Blood samples were taken at 7 h, 31 h, 55 h, 79 h, 103 h, and 168 h. Erythropoietic parameters were also evaluated after a 2-week treatment period with s.c. administration of rhEPO (100 IU/kg twice weekly at days 1, 4, 8, and 11) and BAY 85-3934 (1.5 mg/kg) once daily.\nas §1\nA multiple-dose study in cynomolgus monkeys was conducted to evaluate whether repeat administration of BAY 85-3934 would result in EPO accumulation and/or adaptation of the EPO response. […] In all groups, EPO concentrations had returned to baseline concentrations 24 h after administration of the study drug. […] Platelet and white blood cell counts were unchanged. With respect to EPO induction, the 0.5 mg/kg dose was determined as the minimal effective dose in this study, although statistical significance versus control animals was not reached in this small and heterogeneous animal cohort."}, "male Wistar rats [3]": {"system": "male Wistar rats", "test": "Subtotal nephrectomy (remnant kidney) model", "assay_type": "in vivo, rat", "procedure": "In the chronic disease models of subtotal nephrectomy and inflammation, the sodium salt of BAY 85-3934 was used. For administration in drinking water, BAY 85-3934 sodium and enalapril were prepared as 100 mM sodium bicarbonate saline solutions (adjusted to pH 7) at final concentrations of 80 ppm and 30 ppm, respectively. Sham and vehicle control animals received saline only. Unless otherwise stated, chemicals and reagents were purchased from Sigma-Aldrich.\nSubtotal nephrectomy was conducted in adult male Wistar rats. Body weight, blood pressure, hematocrit, and blood cell counts were determined at baseline and thereafter at weekly intervals. At baseline, rats were randomly distributed into two groups: those that underwent subtotal nephrectomy and those that underwent a sham procedure without reduction of renal mass. Surgery was performed in deeply anesthetized (2% isoflurane in air) animals. Kidneys were accessed via a dorsolateral incision of the body wall of about 2 cm in length. The right kidney was removed after ligature of the renal peduncle, and subsequently the upper and lower pole of the left kidney were removed, followed by careful hemostasis. Approximately one third of the initial kidney mass remained (removed tissue was weighed to check this was achieved). In the sham-treated animals, both kidneys were exposed before closure of the wound. Three weeks after surgery, animals were allocated to each group in equal proportions with respect to systolic blood pressure and hematocrit values. For 5 weeks, animals were treated twice weekly with rhEPO (100 IU/kg), or once daily with […] (2.5 mg/kg or 5.0 mg/kg) or vehicle. In experiments using enalapril or a combination of BAY 85-3934 sodium and enalapril, study drugs were administered with drinking water. BAY 85-3934 sodium and enalapril were administered in drinking water at concentrations of 80 ppm and 30 ppm, respectively. This was equivalent to approximately 2 mg/kg/day for enalapril and 5 mg/kg/day for BAY 85-3934. Systolic blood pressure and heart rate were determined using the tail-cuff method (a semi-automatic, non-invasive blood pressure monitor; TSE Systems), with three repeated measurements per animal.\nas §1\nAs well as anemia and inflammation, CKD is often accompanied by hypertension, upon which treatment with rhEPO may have an unfavorable impact. The effects of BAY 85-3934 were compared with rhEPO in the remnant kidney (subtotal nephrectomy) model in rats."}, "[4]": {"system": "rats and cynomolgus monkeys", "test": "Adverse events in all animal experiments reported", "assay_type": "in vivo", "details": "all of the experiments reported", "procedure": "All procedures conformed to national legislation (dt. Tierschutzgesetz v. 18.05.2006) and EU directives (86/609) for the use of animals for scientific purposes and were approved by the institutional animal care office of Bayer AG and by the competent regional authority (LANUV Recklinghausen). All surgical procedures were performed under deep anesthesia (2% isoflurane) with immediate post-operative analgesia (ketamine/carprofen), and all efforts were made to minimize suffering. Rats were sacrificed by exposure to 10% isoflurane and consecutive cervical dislocation. Standard laboratory diet and tap water were available ad libitum. Rats were provided with wood sticks for chewing and gnawing, and monkeys were provided with appropriate toys such as balls and climbing bars. Animals were housed in temperature- and humidity-controlled cages with a 12 h light/dark cycle. In each experiment, the number of animals used was minimized. Animals were either randomly assigned to experimental groups or, if appropriate, were assigned based on hematocrit levels."}},
  "data": [
    {"molecule": "O=c1c(-n2ccnn2)c[nH]n1-c1cc(N2CCOCC2)ncn1", "note": "[BAY 85-3934, 2-[6-(morpholin-4-yl)pyrimidin-4-yl]-4-(1H-1,2,3-triazol-1-yl)-1,2-dihydro-3H-pyrazol-3-one]", "values": [
      {"measurement": "equivalence of dose for gains in hematocrit and hemoglobin", "setting": "male Wistar rats [1]; BAY 85-3934 2.5 mg/kg once daily", "result": "equivalent to a twice-weekly dose of rhEPO (100 IU/kg)"},
      {"measurement": "hematocrit compared with the control group", "setting": "male Wistar rats [1]; BAY 85-3934 2.5 mg/kg once daily oral, rhEPO 25, 50, 100 IU/kg twice weekly s.c., p<0.001 at day 30", "result": "significant increase"},
      {"measurement": "fraction of BAY 85-3934 eliminated from the plasma", "setting": "[2]; 6 h after 5 mg/kg oral", "result": "~90", "unit": "%"},
      {"measurement": "half-life", "setting": "[2]; rat, plasma, oral, 5 mg/kg, male Wistar rats", "result": 3.4, "unit": "h"},
      {"measurement": "bioavailability", "setting": "[2]; rat, plasma, po, 5 mg/kg, male Wistar rats", "result": "~38", "unit": "%"},
      {"measurement": "plasma EPO 7 h after administration", "setting": "cynomolgus monkeys; 1.5 mg/kg oral, all animals", "result": "significantly induced"},
      {"measurement": "time after administration at which EPO had returned to baseline", "setting": "cynomolgus monkeys; 0.5 and 1.5 mg/kg, all groups", "result": 24, "unit": "h"},
      {"measurement": "adaptation of the EPO response after repeated dosing", "setting": "cynomolgus monkeys; once daily for 5 days", "result": "no adaptation"},
      {"measurement": "platelet and white blood cell counts", "setting": "cynomolgus monkeys; once daily for 5 days", "result": "unchanged"},
      {"measurement": "minimal effective dose for EPO induction", "setting": "cynomolgus monkeys; statistical significance versus control not reached", "result": 0.5, "unit": "mg/kg"},
      {"measurement": "mean systolic blood pressure", "setting": "male Wistar rats [3]; 2.5 mg/kg group", "result": "almost normalized values"},
      {"measurement": "systolic blood pressure versus control and rhEPO-treated animals", "setting": "male Wistar rats [3]; 5 mg/kg", "result": "significantly lower"},
      {"measurement": "mean PCV", "setting": "male Wistar rats [3]; 5 mg/kg group, 2 weeks after onset of treatment", "result": "exceeded 50%"},
      {"measurement": "systolic blood pressure compared with untreated controls", "setting": "male Wistar rats [3]; 5 weeks, tail-cuff", "result": "sustained reduction"},
      {"measurement": "mean PCV", "setting": "male Wistar rats [3]; BAY 85-3934 2.5 and 5 mg/kg once daily, rhEPO 100 IU/kg twice weekly", "result": "significantly increased"},
      {"measurement": "cardiac hypertrophy", "setting": "male Wistar rats [3]; data not shown", "result": "complete prevention"},
      {"measurement": "plasma prorenin after the decrease in blood pressure", "setting": "male Wistar rats [3]; once daily oral, 5 weeks", "result": "not followed by the return of prorenin to normal levels"},
      {"measurement": "adverse events related to treatment", "setting": "[4]", "result": "no significant adverse events"}
    ]}
  ]
}
